Data on one compound can be found in article PMC8637020, “Drug Repositioning For Allosteric Modulation of VIP and PACAP Receptors” (Frontiers in Endocrinology, 2021).

Test [1] deals with T1, VPAC1 (Homo sapiens, UniProt P32241).
T1 construct: gene VIPR1
T1 sequence (P32241 31-457): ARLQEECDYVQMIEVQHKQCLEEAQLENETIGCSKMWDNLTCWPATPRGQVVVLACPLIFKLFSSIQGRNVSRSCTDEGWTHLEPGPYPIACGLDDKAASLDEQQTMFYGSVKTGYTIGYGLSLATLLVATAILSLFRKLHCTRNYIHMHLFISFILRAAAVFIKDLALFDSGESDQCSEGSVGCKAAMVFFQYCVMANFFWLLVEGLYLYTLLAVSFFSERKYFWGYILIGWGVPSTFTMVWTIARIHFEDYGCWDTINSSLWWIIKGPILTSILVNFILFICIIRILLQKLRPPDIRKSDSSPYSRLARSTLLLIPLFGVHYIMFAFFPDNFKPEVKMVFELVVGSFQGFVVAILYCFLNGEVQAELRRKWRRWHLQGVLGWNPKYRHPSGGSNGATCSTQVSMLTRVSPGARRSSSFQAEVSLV
Nature of the test: FAM-VIP competition binding by FACS ([…] VIP binding left at […]) and aequorin calcium mobilization in CHO cells expressing VPAC1; IC50 extrapolated from the partial calcium inhibition. Type of test: cell-based.

In test [2] the target is T2, VPAC2 (Homo sapiens, UniProt P41587).
T2 construct: gene VIPR2
T2 sequence (P41587 24-438): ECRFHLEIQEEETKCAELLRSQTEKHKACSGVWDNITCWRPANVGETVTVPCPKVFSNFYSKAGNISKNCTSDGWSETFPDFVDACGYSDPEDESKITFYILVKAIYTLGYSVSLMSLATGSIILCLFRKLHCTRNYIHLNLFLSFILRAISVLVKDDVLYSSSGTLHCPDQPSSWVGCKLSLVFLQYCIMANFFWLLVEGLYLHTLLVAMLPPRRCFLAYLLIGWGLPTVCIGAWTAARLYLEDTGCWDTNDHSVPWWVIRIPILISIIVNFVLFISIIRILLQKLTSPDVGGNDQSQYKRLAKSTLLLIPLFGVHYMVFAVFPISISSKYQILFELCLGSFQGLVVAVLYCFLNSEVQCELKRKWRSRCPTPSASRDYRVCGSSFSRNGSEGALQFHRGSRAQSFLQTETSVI
Briefly: FAM-VIP competition binding by FACS ([…] VIP binding left at […]) and aequorin calcium mobilization in CHO cells expressing VPAC2; IC50 extrapolated from the partial calcium inhibition. Type of test: cell-based.

One may read the IC50 as the concentration that gives 50% inhibition.

`CCCSc1nc(N[C@@H]2C[C@H]2c2ccc(F)c(F)c2)c2nnn([C@@H]3C[C@H](OCCO)[C@@H](O)[C@H]3O)c2n1` [ticagrelor]: the values for the half-inhibitory concentration (IC50) in test [1] and in test [2] were around 50 µM and around 20 µM, respectively.
